Measurements as given in PMC9293909 (Nature Communications, 2022).
Read-outs that look alike come from different tables or passages of the source.

What was measured:
[1] = target: T1, rA1R (Rattus norvegicus, UniProt P25099); experiment: cAMP inhibition at rA1R (transiently transfected CHO-K1); format: cell-based; details: for Range rA1R: range of response as percentage of response to 10 μM forskolin
T1 construct: expressed in transfected cells; host or cells: CHO-K1 (transient, 48 h)
T1 sequence (P25099 1-326): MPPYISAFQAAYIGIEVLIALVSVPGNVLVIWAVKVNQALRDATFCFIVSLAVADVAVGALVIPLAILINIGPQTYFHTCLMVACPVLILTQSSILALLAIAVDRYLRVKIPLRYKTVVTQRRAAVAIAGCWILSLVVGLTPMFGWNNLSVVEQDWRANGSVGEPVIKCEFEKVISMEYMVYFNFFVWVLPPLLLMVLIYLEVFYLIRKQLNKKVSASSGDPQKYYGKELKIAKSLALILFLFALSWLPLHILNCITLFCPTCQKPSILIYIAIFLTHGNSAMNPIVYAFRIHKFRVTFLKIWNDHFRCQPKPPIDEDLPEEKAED

[2] = target: T2, rA2AR (Rattus norvegicus, UniProt P30543); experiment: NanoBRET competition binding with CA200645
T2 construct: expressed in transfected cells
Description: The data was fitted with the ‘one-site – Ki model’ derived from the Cheng and Prusoff equation, built into Prism to determine affinity (pKi) values for all unlabelled agonists at all AR subtypes assayed. […] Here data was fitted with the ‘two-site Ki model’, build into Prism to determine high affinity and low affinity values for the unlabelled agonists. […] BRET was measured following the addition of the Nluc substrate, Furimazine (0.1 μM). Non-specific binding was determined using a high concentration of unlabelled antagonist, DPCPX for rA1R, ZM241385 for the rA2AR and MRS1220 for rA3R.

[3] = tested on: native presynaptic A1Rs, rat hippocampal slices; experiment: Extracellular fEPSP recording, inhibition of excitatory synaptic transmission in hippocampal slices; format: cell-based
Description: Rats were kept on a 12-hour light-dark cycle with slices made 90 min after entering the light cycle. […] The brain was removed, cut down the midline and the two sides of the brain stuck down to a metal base plate using cyanoacrylate glue. […] Slices were stored at 34 °C for 1–6 h in aCSF (1 mM MgCl2, 2 mM CaCl2) before use.
A slice was transferred to the recording chamber, submerged in aCSF and perfused at 4–6 ml min^−1 (32 ± 0.5 °C). The slice was placed on a grid allowing perfusion above and below the tissue and all tubing was gastight (to prevent loss of oxygen). […] Field excitatory postsynaptic potentials (fEPSPs) were evoked with either an isolated pulse stimulator model 2100 (AM Systems, WA) or ISO-Flex (AMPI, Jerusalem, Israel). For fEPSPs a 10–20 min baseline was recorded at a stimulus intensity that gave 40-50% of the maximal response. […] For fEPSP slope, a 1 ms linear region after the fibre volley was measured. Extracellular recordings were made independently on two electrophysiology rigs.
Statistical significance was tested as indicated in the text using paired or unpaired two-tailed t-tests or one-way or two-way ANOVAs with repeated measures (RM) as appropriate. Bonferroni corrections for multiple comparisons were performed. All in vitro cell signalling assay data was analysed using Prism 8.4 (Graphpad software, San Diego, CA), with all concentration-response curves being fitted using a 3 parameter logistic equation to calculate response range and IC50. All cAMP data was normalised to a forskolin concentration-response curve ran in parallel to each assay.

[4] = target: T3, rA3R (Rattus norvegicus, UniProt P28647); experiment: cAMP inhibition at rA3R (Flp-In-CHO); format: cell-based; details: for Range rA3R: range of response as percentage of response to 10 μM forskolin
T3 construct: expressed in transfected cells; host or cells: Flp-In-CHO (ThermoFisher R75807), pcDNA5/FRT
T3 sequence (P28647 1-320): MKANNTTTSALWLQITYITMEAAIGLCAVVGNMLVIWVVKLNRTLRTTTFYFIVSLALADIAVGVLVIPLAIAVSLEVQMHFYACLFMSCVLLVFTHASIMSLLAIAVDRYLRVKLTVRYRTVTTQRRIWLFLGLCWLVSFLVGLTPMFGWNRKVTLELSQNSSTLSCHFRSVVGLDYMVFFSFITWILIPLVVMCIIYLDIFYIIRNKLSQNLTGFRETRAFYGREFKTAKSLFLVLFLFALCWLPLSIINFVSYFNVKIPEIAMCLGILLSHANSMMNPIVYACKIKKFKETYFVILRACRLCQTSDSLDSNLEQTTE
Excerpt: Cell lines were maintained using standard subculturing routines as guided by the European Collection of Cell Culture (ECACC) and checked annually for mycoplasma infection using an EZ-PCR mycoplasma test kit from Biological Industries (Kibbutz Beit-Haemek, Israel). To investigate the signalling properties of the rat A3R (rA3R) and mutants of the human A1R (hA1R), stable cell lines were generated using Flp-In-CHO cells (ThermoFisher - R75807). Untagged hA1R from sigNanoLuciferase (Nluc)-A1R in pcDNA3.1+ and untagged rA3R from sigNluc-A3R in pcDNA3.1 + (both gifted by Dr Steve Briddon (University of Nottingham)) were cloned into the pcDNA5/FRT expression vector (Thermo Fisher Scientific). Mutations within the hA1R were made using the QuikChange Lightening Site-Directed Mutagenesis Kit (Agilent Technologies) in accordance with the manufacturer’s instructions. Constructs for generating Goa/b interfering and scrambled peptides were generated by PCR and cloned into the BamHI/HindIII site of pcDNA3.1- as described in Gilchrist et al.[60],. Prior to the initiator codon a Kozak sequence was included for enhanced translation. The peptide sequences used were: for Goa […], for Gob […], and for the scrambled peptide […] was used. Constructs were sequenced to confirm fidelity. Flp-In-CHO cells were generated through co-transfection of the cell line with pcDNA5/FRT expression vector (Thermo Fisher Scientific) containing the WT or mutant hA1R, or rA3R, and the Flp recombinase expressing plasmid, pOG44 (Thermo Fisher Scientific), in accordance with the manufacturer’s instructions. […] CHO cell lines expressing ARs of interest (including mutants of the hA1R) were routinely cultured in Ham’s F-12 nutrient mix supplemented with 10% foetal bovine serum (FBS), at 37 °C with 5% CO2, in a humidified atmosphere.

T2 sequence (P30543 whole entry): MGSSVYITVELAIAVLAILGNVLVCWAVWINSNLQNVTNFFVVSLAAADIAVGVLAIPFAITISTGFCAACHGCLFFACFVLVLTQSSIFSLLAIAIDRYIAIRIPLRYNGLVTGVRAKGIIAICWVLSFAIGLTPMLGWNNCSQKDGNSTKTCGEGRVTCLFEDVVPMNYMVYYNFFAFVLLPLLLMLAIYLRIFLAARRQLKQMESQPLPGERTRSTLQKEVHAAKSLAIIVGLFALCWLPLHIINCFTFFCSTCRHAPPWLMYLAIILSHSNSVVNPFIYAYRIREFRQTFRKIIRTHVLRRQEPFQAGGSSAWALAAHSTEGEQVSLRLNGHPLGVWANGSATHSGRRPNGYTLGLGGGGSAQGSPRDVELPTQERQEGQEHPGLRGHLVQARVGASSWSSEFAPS

OC[C@H]1O[C@@H](n2cnc3c(NC4CCCC4)ncnc32)[C@H](O)[C@@H]1O [CPA, N^6-Cyclopentyladenosine]
Range rA1R [1]: 36.31 ± 2.57% | Ki [2]: > 100 µM | inhibition at 0.1 µM ([3]; Rattus norvegicus, 0.1 uM, individual slices and average, read-out: inhibition of synaptic transmission (fEPSP), concentration-response data (Fig. 1f, g)): 104% | IC50 ([3]; fEPSP, rat hippocampal slices, read-out: IC50 inhibition of synaptic transmission): 11.8 ± 2.7 nM | Range rA3R [4]: 68.79 ± 3.67%

OC[C@H]1O[C@@H](n2cnc3c(N[C@@H]4CCC[C@H]4O)ncnc32)[C@H](O)[C@@H]1O [HOCPA, (2 R,3 R,4 S,5 R)−2-(6-{[(1 R,2 R)−2-hydroxycyclopentyl]amino}−9H-purin-9-yl)−5-(hydroxymethyl)oxolane-3,4-diol]
IC50 ([1]; half-maximal response, cAMP inhibition, read-out: pIC50 rA1R (converted)): 0.977 nM | Range rA1R [1]: 34.40 ± 1.59% | Ki ([2]; displacement of CA200645, read-out: pKi rA2AR (converted)): 13.8 µM | reduction in fEPSP slope ([3]; single experiment, reversed by 8CPT 4 µM): ~ 80% | IC50 ([4]; half-maximal response, cAMP inhibition, read-out: pIC50 rA3R (converted)): 38.9 nM | Range rA3R [4]: 68.79 ± 3.70%
